Measured values: publication PMC10289903 (Investigational New Drugs, 2023)
Read-outs that look alike come from different tables or passages of the source.

Test system: patients with locally advanced or metastatic solid tumors
Description: This was a Phase Ib, multicenter, open-label, dose-finding clinical trial (NCT02610075). […] Three types of treatment schedules were investigated: cohorts bid 1, bid 2, qd 1.1, qd 2.1 and qd 3.1 received bid or qd treatment on a 5/9 schedule (5 days on treatment, followed by 9 days off) on a 14-day cycle. Cohorts qd 1.2, qd 2.2, and qd 3.2 received treatment on a 5/2 schedule (5 days on followed by 2 days off for 2 of 3 weeks) in a 21-day cycle. Cohorts qd 2.3 and qd 3.3 received treatment on a weekly 5/2 schedule in a 21-day cycle (Table 1). The highest dose level(s) at which less than one-third of evaluable patients (none of 3 patients or 1 of 6 patients) experienced a dose-limiting toxicity (DLT) was declared the MTD.
The per protocol analysis set was defined as a subset of the full analysis set, excluding subjects having an important protocol deviation, to be used for analyses of efficacy endpoints if appropriate.

[1] = qd 2.3: 250 mg qd 5/2 weekly (n=10)

## C=CCn1c(=O)c2cnc(Nc3ccc(N4CCN(C)CC4)cc3)nc2n1-c1cccc(C(C)(C)O)n1 [adavosertib, Adavosertib]
Qd 2.1: 250 mg qd 5/9 (n=4)
  Thrombocytopenia (treatment-related AE): 0 n (%)
  Urinary tract infection (treatment-emergent AE): 0 n (%)
  Vomiting (treatment-emergent AE): 0 n (%)
  Vomiting (treatment-related AE): 0 n (%)
Qd 2.2: 250 mg qd 5/2 (n=3)
  Abdominal pain (treatment-emergent AE): 0 n (%)
  Abdominal pain (treatment-related AE): 0 n (%)
  Alanine aminotransferase increased (treatment-emergent AE): 1 (33.3) n (%)
  Anemia (treatment-emergent AE): 1 (33.3) n (%)
  Anemia (treatment-related AE): 1 (33.3) n (%)
  Any AE (treatment-emergent): 3 (100) n (%)
  Any grade ≥ 3 AE: 3 (100.0) n (%)
  Any treatment-related AE: 3 (100) n (%)
  Any treatment-related grade ≥ 3 AE: 3 (100.0) n (%)
  Asthenia (treatment-emergent AE): 1 (33.3) n (%)
  Asthenia (treatment-related AE): 1 (33.3) n (%)
  Back pain (treatment-emergent AE): 1 (33.3) n (%)
  Constipation (treatment-emergent AE): 1 (33.3) n (%)
  Constipation (treatment-related AE): 1 (33.3) n (%)
  Cough (treatment-emergent AE): 1 (33.3) n (%)
  Decreased appetite (treatment-emergent AE): 1 (33.3) n (%)
  Decreased appetite (treatment-related AE): 0 n (%)
  Dehydration (treatment-emergent AE): 2 (66.7) n (%)
  Dehydration (treatment-related AE): 1 (33.3) n (%)
  Diarrhea (treatment-emergent AE): 2 (66.7) n (%)
  Diarrhea (treatment-related AE): 2 (66.7) n (%)
  Dizziness (treatment-emergent AE): 0 n (%)
  Dyspepsia (treatment-emergent AE): 0 n (%)
  Dyspepsia (treatment-related AE): 0 n (%)
  Dyspnea (treatment-emergent AE): 0 n (%)
  Edema peripheral (treatment-emergent AE): 0 n (%)
  Fall (treatment-emergent AE): 1 (33.3) n (%)
  Fatigue (treatment-emergent AE): 2 (66.7) n (%)
  Fatigue (treatment-related AE): 2 (66.7) n (%)
  Headache (treatment-emergent AE): 0 n (%)
  Hypokalemia (treatment-emergent AE): 1 (33.3) n (%)
  Insomnia (treatment-emergent AE): 0 n (%)
  Muscle spasms (treatment-emergent AE): 1 (33.3) n (%)
  Myalgia (treatment-emergent AE): 0 n (%)
  Myalgia (treatment-related AE): 0 n (%)
  Nausea (treatment-emergent AE): 2 (66.7) n (%)
  Nausea (treatment-related AE): 2 (66.7) n (%)
  Neutropenia (treatment-emergent AE): 0 n (%)
  Neutropenia (treatment-related AE): 0 n (%)
  Pneumonia (treatment-emergent AE): 1 (33.3) n (%)
  Pyrexia (treatment-emergent AE): 2 (66.7) n (%)
  Rash (treatment-emergent AE): 1 (33.3) n (%)
  Thrombocytopenia (treatment-emergent AE): 1 (33.3) n (%)
  Thrombocytopenia (treatment-related AE): 1 (33.3) n (%)
  Urinary tract infection (treatment-emergent AE): 1 (33.3) n (%)
  Vomiting (treatment-emergent AE): 2 (66.7) n (%)
  Vomiting (treatment-related AE): 2 (66.7) n (%)
[1]
  Abdominal pain (treatment-emergent AE): 2 (20.0) n (%)
  Abdominal pain (treatment-related AE): 0 n (%)
  Alanine aminotransferase increased (treatment-emergent AE): 1 (10.0) n (%)
  Anemia (treatment-emergent AE): 2 (20.0) n (%)
  Anemia (treatment-related AE): 1 (10.0) n (%)
  Any AE (treatment-emergent): 8 (80.0) n (%)
  Any grade ≥ 3 AE: 5 (50.0) n (%)
  Any treatment-related AE: 8 (80.0) n (%)
  Any treatment-related grade ≥ 3 AE: 4 (40.0) n (%)
  Asthenia (treatment-emergent AE): 0 n (%)
  Asthenia (treatment-related AE): 0 n (%)
  Back pain (treatment-emergent AE): 2 (20.0) n (%)
  Constipation (treatment-emergent AE): 2 (20.0) n (%)
  Constipation (treatment-related AE): 2 (20.0) n (%)
  Cough (treatment-emergent AE): 0 n (%)
  Decreased appetite (treatment-emergent AE): 3 (30.0) n (%)
  Decreased appetite (treatment-related AE): 2 (20.0) n (%)
  Dehydration (treatment-emergent AE): 5 (50.0) n (%)
  Dehydration (treatment-related AE): 2 (20.0) n (%)
  Diarrhea (treatment-emergent AE): 7 (70.0) n (%)
  Diarrhea (treatment-related AE): 7 (70.0) n (%)
  Dizziness (treatment-emergent AE): 2 (20.0) n (%)
  Dyspepsia (treatment-emergent AE): 0 n (%)
  Dyspepsia (treatment-related AE): 0 n (%)
  Dyspnea (treatment-emergent AE): 0 n (%)
  Edema peripheral (treatment-emergent AE): 2 (20.0) n (%)
  Fall (treatment-emergent AE): 2 (20.0) n (%)
  Fatigue (treatment-emergent AE): 3 (30.0) n (%)
  Fatigue (treatment-related AE): 2 (20.0) n (%)
  Headache (treatment-emergent AE): 0 n (%)
  Hypokalemia (treatment-emergent AE): 3 (30.0) n (%)
  Insomnia (treatment-emergent AE): 3 (30.0) n (%)
  Muscle spasms (treatment-emergent AE): 1 (10.0) n (%)
  Myalgia (treatment-emergent AE): 2 (20.0) n (%)
  Myalgia (treatment-related AE): 2 (20.0) n (%)
  Nausea (treatment-emergent AE): 3 (30.0) n (%)
  Nausea (treatment-related AE): 2 (20.0) n (%)
  Neutropenia (treatment-emergent AE): 1 (10.0) n (%)
  Neutropenia (treatment-related AE): 1 (10.0) n (%)
  Pneumonia (treatment-emergent AE): 1 (10.0) n (%)
  Pyrexia (treatment-emergent AE): 0 n (%)
  Rash (treatment-emergent AE): 2 (20.0) n (%)
  Thrombocytopenia (treatment-emergent AE): 3 (30.0) n (%)
  Thrombocytopenia (treatment-related AE): 3 (30.0) n (%)
  Urinary tract infection (treatment-emergent AE): 1 (10.0) n (%)
  Vomiting (treatment-emergent AE): 2 (20.0) n (%)
  Vomiting (treatment-related AE): 1 (10.0) n (%)
Qd 3.1: 300 mg qd 5/9 (n=4)
  Abdominal pain (treatment-emergent AE): 1 (25.0) n (%)
  Abdominal pain (treatment-related AE): 1 (25.0) n (%)
  Alanine aminotransferase increased (treatment-emergent AE): 0 n (%)
  Anemia (treatment-emergent AE): 1 (25.0) n (%)
  Anemia (treatment-related AE): 0 n (%)
  Any AE (treatment-emergent): 4 (100) n (%)
  Any grade ≥ 3 AE: 3 (75.0) n (%)
  Any treatment-related AE: 2 (50.0) n (%)
  Any treatment-related grade ≥ 3 AE: 1 (25.0) n (%)
  Asthenia (treatment-emergent AE): 0 n (%)
  Asthenia (treatment-related AE): 0 n (%)
  Back pain (treatment-emergent AE): 1 (25.0) n (%)
  Constipation (treatment-emergent AE): 1 (25.0) n (%)
  Constipation (treatment-related AE): 0 n (%)
  Cough (treatment-emergent AE): 1 (25.0) n (%)
  Decreased appetite (treatment-emergent AE): 0 n (%)
  Decreased appetite (treatment-related AE): 0 n (%)
